Active and inactive are the calls of the source.

The target of test [1] is T1, Bcl-2-related protein A1 (Mus musculus, UniProt Q07440).
T1 sequence (Q07440 whole entry): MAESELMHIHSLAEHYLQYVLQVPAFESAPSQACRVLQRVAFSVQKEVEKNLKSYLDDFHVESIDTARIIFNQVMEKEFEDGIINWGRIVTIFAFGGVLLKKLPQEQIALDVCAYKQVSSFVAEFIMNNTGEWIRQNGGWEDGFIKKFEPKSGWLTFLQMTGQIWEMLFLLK
Description: small-molecule antagonists of Bfl-1/BH3 interaction – biochemical, TR-FRET, mouse Bfl-1, confirmation (AID 621). (TR-FRET usually uses a lanthanide donor and a delayed reading to cut background.)

The target of test [2] is T1, Bcl-2-related protein A1. Description: Bfl-1 binding inhibitors, SAR follow-up, biochemical, fluorescence polarization (AID 1070).
The target of test [3] is Peroxisome proliferator-activated receptor gamma/Nuclear receptor coactivator 1 (Homo sapiens, UniProt P37231). Put plainly: TR-FRET dose response biochemical High Throughput Screening assay for agonists of the steroid receptor coactivator 1 (SRC-1) recruitment by the peroxisome proliferator-activated receptor gamma (PPAR gamma): non-selective agonists. [Related pubchem assays (depositor defined):AID1300, AID1808, AID504735, AID631]. The test is classed as protein assay.

Test [4] concerns the target Peroxisome proliferator-activated receptor gamma/Nuclear receptor coactivator 3 (Homo sapiens, UniProt P37231). Description: TR-FRET dose response biochemical High Throughput Screening assay for agonists of the steroid receptor coactivator 3 (SRC-3) recruitment by the peroxisome proliferator-activated receptor gamma (PPAR gamma): non-selective agonists. [Related pubchem assays: 1301 (Confirmation screen.), 1048 (Primary screen.)]. The test is classed as functional.

For a further test, the target named is NS3 (Hepatitis C virus, UniProt A3EZJ3). Put plainly: PubChem AID 2173. Set-up: species or system Hepacivirus hominis.
The target of test [5] is Peroxisome proliferator-activated receptor gamma/Nuclear receptor coactivator 2 (Homo sapiens, UniProt P37231). Put plainly: TR-FRET dose response biochemical High Throughput Screening assay for agonists of the steroid receptor coactivator 2 (SRC-2) recruitment by the peroxisome proliferator-activated receptor gamma (PPAR gamma): non-selective agonists. [Related pubchem assays: 1297, 1032 ]. The test is classed as functional.

A further test concerns the target Cysteine protease ATG4B (Homo sapiens, UniProt Q9Y4P1). The test is classed as functional.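 Also: Fluorescence-based dose-response confirmation assay measuring inhibition of ATG4B activity.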
The next test has as its target Phospholipase A2 (Homo sapiens, UniProt P04054). It is filed as functional.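 Also: confirmatory dose-response counterscreen on phospholipase A2, testing hits that came from an ultra-high-throughput screen for ATG4B inhibitors.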
The target in test [6] is DNA (cytosine-5)-methyltransferase 1 (Homo sapiens, UniProt P26358). Put plainly: inhibition of DNA methylation by DNMT1 – biochemical, fluorescent molecular beacon, confirmation (AID 602386). It is filed as functional.
Test [7] can be described thus: Luminescence Cell-Based Dose Confirmation HTS to Identify Inhibitors of Polyadenylation. The test is classed as functional.
Test [8] in a line: HPDE-C7 pancreatic duct cell viability loss – fluorescence, HTS (AID 430). The settings on record: Homo sapiens. The test is classed as functional, cell-based.
Test [9] is described as follows: viability loss of HPDE-C7K cells – cell-based, fluorescence, HTS, primary screen (AID 431). To be noted: Homo sapiens. The test is classed as functional.
The nature of test [10]: viability of PTEN-deleted HCT116 cells – cell-based, HCT116 PTEN knockout, dose response (AID 1047).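 Also: HCT116 colon tumor cells with PTEN knocked out; cells exposed to compound for 60 hours before readout; potency for loss of cell viability measured by luminescence.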 The test is classed as functional.
Test [11] is described as follows: viability of HCT116 lacking mutant beta-catenin – cell-based, human colon tumor, dose response (AID 1045).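 Also: HCT116 colon tumor cells with beta catenin knocked out; cells exposed to compound for 60 hours.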 The test is classed as functional.
For test [12], the target named is FAD-linked sulfhydryl oxidase ALR (Homo sapiens, UniProt P55789). Put plainly: ALR-catalysed DTT oxidation blockers – biochemical, H2O2 detection, luminescence, cherry-pick, dose response (AID 493248).
Test [13] in a line: A High Throughput Confirmatory Assay used to Identify Novel Compounds that Inhibit Mycobacterium Tuberculosis in the absence of Glycerol. The test is classed as functional.
Test [14] is described as follows: cells. The test is classed as functional.
In the next test the target is T2, Estrogen receptor (Homo sapiens, UniProt P03372).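 Also: potency for inhibiting coactivator peptide recruitment to the receptor.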
T2 sequence (P03372 whole entry): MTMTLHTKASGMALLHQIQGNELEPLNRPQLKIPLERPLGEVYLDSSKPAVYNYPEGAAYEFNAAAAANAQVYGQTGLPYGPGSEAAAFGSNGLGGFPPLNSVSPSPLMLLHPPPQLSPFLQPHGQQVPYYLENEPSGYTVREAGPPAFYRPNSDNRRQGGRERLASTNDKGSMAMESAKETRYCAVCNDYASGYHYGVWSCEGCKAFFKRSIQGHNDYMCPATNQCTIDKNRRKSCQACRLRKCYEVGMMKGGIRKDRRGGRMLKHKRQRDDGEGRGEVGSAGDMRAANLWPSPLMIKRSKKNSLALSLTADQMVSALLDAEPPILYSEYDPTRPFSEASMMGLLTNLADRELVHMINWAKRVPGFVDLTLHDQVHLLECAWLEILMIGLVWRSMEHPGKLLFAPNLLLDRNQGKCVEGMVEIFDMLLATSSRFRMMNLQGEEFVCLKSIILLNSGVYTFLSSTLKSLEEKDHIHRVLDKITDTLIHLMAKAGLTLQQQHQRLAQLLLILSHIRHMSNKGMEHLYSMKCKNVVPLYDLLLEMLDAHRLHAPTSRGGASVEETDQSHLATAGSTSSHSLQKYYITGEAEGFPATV

Test [15] in a line: luciferase reporter signal suppression in cells – H4 neuroglioma cells, luminescence, dose response (AID 1990). It is filed as functional, cell-based.
Test [16] in a line: luciferase reporter signal reduction – luminescence, H4-C neuroglioblastoma cells, dose response (AID 2458).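 Also: H4 neuroglioblastoma cells stably carrying a luciferase reporter gene fusion.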 It is filed as functional, cell-based.
In test [17] the test system is HEK293. Description: inhibition of NOD1-driven NF-kB reporter – cell-based, luminescence, uHTS, primary screen (AID 1578). It is filed as functional. To be noted: Homo sapiens.
In test [18] the test system is Streptococcus sp. 'group A'. Description: Streptococcus pyogenes SK(-)GAS viability under kanamycin – luminescence, BacTiterGlo, confirmation, counter-screen for streptokinase expression inhibitor project, dose response (AID 1900). The test is classed as functional, organism-based. (In general: A counterscreen serves to expose hits that act by an unwanted route or on another target.)

In test [19] the test system is HEK293. Description: cells. The settings on record: Homo sapiens. It is filed as functional, cell-based.
Test [20] in a line: cells. It is filed as functional, cell-based.
Test [21] can be described thus: alpha-synuclein stem-loop luciferase translation blockers – H4 neuroglioma cells, luminescence, confirmation (AID 1988). It is filed as functional, cell-based.
The test system of test [22] is HEK293. Description: cells. It is filed as functional, cell-based. The settings on record: Homo sapiens. The source holds these as a separate data set.
The target in test [23] is Nucleotide-binding oligomerization domain-containing protein 2 (Homo sapiens, UniProt Q9HC29). Put plainly: inhibition of NOD2-driven NF-kB reporter – cell-based, luminescence, uHTS, HEK293 (AID 1566). The test is classed as functional.
Test [24] deals with T3, Mannose-6-phosphate isomerase (Homo sapiens, UniProt P34949).
T3 sequence (P34949 whole entry): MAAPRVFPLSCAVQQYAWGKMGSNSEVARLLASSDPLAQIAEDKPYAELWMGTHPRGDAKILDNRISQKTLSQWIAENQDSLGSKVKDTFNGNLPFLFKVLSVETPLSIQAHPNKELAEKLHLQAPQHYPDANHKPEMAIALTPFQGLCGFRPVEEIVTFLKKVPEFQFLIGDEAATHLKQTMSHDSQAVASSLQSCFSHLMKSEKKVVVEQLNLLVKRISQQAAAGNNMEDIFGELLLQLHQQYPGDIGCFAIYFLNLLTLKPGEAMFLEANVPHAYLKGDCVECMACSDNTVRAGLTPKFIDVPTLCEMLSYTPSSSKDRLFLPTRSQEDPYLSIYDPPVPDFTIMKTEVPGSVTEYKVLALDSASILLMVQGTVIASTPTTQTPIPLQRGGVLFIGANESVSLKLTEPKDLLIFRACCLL
Put plainly: MPI enzyme activity inhibition – biochemical, fluorescence intensity, coupled assay, primary screen (AID 1209).

Test [25] deals with HEK293. Put plainly: NOD2 signaling inhibitors in MDP-stimulated cells, cell-based, uHTS, luminescence (AID 2001). It is filed as functional. To be noted: Homo sapiens.
Test [26] can be described thus: Trypanosoma cruzi growth suppression in host cells – NIH3T3 host cells, beta-gal luminescence, confirmation (AID 2044).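 Also: intracellular parasites grown in NIH/3T3 mouse fibroblasts as host cells; luminescent beta-galactosidase reporter signal from transgenic T. cruzi replicating inside host cells; inhibitors lower the luminescence signal.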 The test is classed as functional, cell-based.
For test [27], the system named is HEK293. Put plainly: cells. It is filed as functional, cell-based. To be noted: Homo sapiens. The source holds these as a separate data set.
Test [28] is described as follows: NIH3T3 cell viability loss – ATP luminescence, mouse fibroblasts, counter-screen, dose response (AID 2010).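 Also: cells exposed to compound for about 90 hours before reading.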 It is filed as functional, cell-based.
The next test relates to Streptococcus. Description: GAS UMAA2166 growth inhibition – luminescence, BacTiterGlo, counter-screen for streptokinase expression inhibitor project, dose response (AID 1915).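 Also: potency for reduction of bacterial viability or growth.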 The test is classed as functional, organism-based.
For test [29], the target named is T3, Mannose-6-phosphate isomerase. Description: MPI inhibition at elevated mannose 6-phosphate – biochemical, fluorescence intensity, high mannose 6-phosphate, primary screen (AID 1220).
Test [30] in a line: alpha-synuclein stem-loop translation blockers – luminescence, H4 neuroglioblastoma cells, dose confirmation, confirmation (AID 2454).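 Also: H4 neuroglioblastoma cells carrying an alpha-synuclein 5'UTR luciferase reporter; potency for inhibition of the luciferase signal.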 The test is classed as functional, cell-based.
The next test concerns INS1. Description: INS-1E survival protection against cytokine death – cell-based, luminescence, retest, dose response (AID 449756).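 Also: cell death triggered by IL-1 beta plus TNF-alpha plus IFN-gamma mixture; protective hits raise ATP signal compared with cytokine alone wells.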 It is filed as functional. To be noted: Rattus norvegicus.
For the next test, the target named is NADPH oxidase 1 (Homo sapiens, UniProt Q9Y5S8). It is filed as functional, cell-based.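 Also: Cell-based assay with luminescence read-out, IC50 derived from inhibitor dose-response curves; intracellular ROS from endogenous NOX1 in intact HT29 colon cancer cells; potency of inhibitors that lower the ROS luminescence signal.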
Test [31] deals with T4, Cytochrome P450 2C19 (Homo sapiens, UniProt P33261). Description: qHTS Assay for Inhibitors and Substrates of Cytochrome P450 2C19. [Related pubchem assays: 410 ]. The test is classed as ADME. The settings on record: read-out: Potency.
The target in test [32] is T4, Cytochrome P450 2C19. Put plainly: Cytochrome panel assay with activity outcomes. Panel member name: p450-cyp2c19 Compounds with AC50 equal or less than 10 uM are considered active. The test is classed as functional. To be noted: read-out: AC50.
The next test has as its target Cytochrome P450 2D6 (Homo sapiens, UniProt P10635).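 Also: CYP2D6 member of a cytochrome P450 panel assay.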

T4 sequence (P33261 whole entry): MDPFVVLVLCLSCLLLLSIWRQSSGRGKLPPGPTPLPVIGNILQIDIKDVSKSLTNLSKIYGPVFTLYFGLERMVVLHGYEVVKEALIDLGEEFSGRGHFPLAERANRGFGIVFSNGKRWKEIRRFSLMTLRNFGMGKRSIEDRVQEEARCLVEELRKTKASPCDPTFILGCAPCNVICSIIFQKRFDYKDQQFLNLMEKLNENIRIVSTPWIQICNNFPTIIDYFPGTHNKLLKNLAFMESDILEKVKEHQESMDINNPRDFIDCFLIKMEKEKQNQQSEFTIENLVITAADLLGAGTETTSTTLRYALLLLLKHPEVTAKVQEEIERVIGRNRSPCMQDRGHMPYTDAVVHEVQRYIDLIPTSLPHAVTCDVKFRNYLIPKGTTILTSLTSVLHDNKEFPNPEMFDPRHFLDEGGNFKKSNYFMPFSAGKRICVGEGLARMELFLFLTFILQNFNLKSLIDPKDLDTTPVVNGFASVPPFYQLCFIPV
Cysteine protease ATG4B, sequence (Q9Y4P1 whole entry): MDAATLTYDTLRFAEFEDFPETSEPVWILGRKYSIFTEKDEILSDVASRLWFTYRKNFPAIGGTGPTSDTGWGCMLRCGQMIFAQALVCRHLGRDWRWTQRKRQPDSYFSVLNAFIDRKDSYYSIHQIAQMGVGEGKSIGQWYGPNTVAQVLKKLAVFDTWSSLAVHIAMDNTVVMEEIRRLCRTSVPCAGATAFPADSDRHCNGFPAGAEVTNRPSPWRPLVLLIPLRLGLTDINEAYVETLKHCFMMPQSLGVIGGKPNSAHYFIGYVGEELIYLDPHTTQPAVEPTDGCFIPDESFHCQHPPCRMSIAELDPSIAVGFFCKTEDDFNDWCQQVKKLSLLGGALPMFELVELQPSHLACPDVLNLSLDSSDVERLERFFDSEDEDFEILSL
Phospholipase A2, sequence (P04054 whole entry): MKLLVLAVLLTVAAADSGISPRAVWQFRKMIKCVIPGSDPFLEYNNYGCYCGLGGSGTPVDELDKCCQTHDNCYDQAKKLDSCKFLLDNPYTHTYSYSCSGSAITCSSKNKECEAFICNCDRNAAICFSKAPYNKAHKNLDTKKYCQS
NS3, sequence (A3EZJ3 whole entry): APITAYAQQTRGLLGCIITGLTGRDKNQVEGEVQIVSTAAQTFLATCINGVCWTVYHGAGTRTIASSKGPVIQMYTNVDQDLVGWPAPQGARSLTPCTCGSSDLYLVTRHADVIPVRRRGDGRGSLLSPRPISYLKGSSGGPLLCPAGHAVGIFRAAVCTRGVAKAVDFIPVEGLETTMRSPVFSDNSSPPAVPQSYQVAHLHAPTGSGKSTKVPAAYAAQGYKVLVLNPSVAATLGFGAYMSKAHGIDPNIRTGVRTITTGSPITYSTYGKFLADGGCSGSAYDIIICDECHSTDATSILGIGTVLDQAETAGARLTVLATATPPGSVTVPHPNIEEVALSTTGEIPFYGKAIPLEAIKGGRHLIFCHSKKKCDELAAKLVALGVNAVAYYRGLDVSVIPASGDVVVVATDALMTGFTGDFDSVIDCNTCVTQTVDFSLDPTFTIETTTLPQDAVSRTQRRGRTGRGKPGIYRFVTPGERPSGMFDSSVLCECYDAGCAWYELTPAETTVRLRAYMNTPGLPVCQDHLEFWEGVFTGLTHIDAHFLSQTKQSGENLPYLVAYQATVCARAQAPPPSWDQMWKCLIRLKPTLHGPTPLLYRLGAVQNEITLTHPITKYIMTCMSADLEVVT
Nucleotide-binding oligomerization domain-containing protein 2, sequence (Q9HC29 whole entry, the tested form may be a part): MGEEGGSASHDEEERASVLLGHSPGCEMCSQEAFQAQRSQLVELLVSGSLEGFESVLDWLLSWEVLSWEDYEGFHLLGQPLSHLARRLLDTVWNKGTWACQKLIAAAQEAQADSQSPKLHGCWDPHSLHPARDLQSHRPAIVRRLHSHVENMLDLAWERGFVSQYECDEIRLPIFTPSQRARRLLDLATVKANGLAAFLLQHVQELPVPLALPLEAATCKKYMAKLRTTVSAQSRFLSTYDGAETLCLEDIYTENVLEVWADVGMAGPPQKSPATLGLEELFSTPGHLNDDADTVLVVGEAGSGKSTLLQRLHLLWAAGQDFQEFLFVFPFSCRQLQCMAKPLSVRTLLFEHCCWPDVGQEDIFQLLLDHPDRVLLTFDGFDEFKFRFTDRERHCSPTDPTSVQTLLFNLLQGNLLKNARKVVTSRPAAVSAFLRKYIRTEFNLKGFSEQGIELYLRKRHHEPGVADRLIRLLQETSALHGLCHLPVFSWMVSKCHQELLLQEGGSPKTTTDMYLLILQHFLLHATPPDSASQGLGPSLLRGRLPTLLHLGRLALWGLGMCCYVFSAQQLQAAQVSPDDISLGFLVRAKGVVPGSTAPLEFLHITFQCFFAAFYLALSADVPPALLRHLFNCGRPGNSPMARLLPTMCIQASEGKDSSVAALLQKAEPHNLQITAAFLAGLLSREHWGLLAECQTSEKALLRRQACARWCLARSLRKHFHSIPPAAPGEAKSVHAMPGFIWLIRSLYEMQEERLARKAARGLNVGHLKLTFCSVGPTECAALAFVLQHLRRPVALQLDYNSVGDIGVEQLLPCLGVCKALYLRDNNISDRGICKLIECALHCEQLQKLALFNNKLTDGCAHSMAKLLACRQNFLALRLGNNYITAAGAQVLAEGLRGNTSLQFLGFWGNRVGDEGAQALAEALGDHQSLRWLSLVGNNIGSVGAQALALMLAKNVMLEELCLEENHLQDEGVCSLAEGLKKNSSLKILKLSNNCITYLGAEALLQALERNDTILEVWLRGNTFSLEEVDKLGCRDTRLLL
FAD-linked sulfhydryl oxidase ALR, sequence (P55789 whole entry): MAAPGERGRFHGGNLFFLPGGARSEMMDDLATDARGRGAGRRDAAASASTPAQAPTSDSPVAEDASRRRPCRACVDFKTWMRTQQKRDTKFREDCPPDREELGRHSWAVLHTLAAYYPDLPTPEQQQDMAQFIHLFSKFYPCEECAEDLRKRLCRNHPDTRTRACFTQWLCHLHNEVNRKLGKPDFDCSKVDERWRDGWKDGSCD
Peroxisome proliferator-activated receptor gamma/Nuclear receptor coactivator 1, sequence (P37231 whole entry): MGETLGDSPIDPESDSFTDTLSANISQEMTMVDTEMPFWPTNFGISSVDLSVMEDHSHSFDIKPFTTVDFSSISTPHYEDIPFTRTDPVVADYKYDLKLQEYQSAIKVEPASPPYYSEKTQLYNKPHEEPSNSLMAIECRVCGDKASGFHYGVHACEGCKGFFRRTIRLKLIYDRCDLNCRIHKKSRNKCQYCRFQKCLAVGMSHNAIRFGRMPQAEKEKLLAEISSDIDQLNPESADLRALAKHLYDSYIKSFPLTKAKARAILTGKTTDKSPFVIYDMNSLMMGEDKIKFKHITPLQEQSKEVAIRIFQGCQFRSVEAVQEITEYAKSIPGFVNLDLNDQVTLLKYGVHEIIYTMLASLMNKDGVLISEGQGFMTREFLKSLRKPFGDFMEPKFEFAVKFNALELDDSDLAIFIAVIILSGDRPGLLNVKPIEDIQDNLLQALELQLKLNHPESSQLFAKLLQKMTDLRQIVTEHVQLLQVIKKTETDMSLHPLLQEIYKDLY
Peroxisome proliferator-activated receptor gamma/Nuclear receptor coactivator 1, sequence (Q15788 whole entry, further chain): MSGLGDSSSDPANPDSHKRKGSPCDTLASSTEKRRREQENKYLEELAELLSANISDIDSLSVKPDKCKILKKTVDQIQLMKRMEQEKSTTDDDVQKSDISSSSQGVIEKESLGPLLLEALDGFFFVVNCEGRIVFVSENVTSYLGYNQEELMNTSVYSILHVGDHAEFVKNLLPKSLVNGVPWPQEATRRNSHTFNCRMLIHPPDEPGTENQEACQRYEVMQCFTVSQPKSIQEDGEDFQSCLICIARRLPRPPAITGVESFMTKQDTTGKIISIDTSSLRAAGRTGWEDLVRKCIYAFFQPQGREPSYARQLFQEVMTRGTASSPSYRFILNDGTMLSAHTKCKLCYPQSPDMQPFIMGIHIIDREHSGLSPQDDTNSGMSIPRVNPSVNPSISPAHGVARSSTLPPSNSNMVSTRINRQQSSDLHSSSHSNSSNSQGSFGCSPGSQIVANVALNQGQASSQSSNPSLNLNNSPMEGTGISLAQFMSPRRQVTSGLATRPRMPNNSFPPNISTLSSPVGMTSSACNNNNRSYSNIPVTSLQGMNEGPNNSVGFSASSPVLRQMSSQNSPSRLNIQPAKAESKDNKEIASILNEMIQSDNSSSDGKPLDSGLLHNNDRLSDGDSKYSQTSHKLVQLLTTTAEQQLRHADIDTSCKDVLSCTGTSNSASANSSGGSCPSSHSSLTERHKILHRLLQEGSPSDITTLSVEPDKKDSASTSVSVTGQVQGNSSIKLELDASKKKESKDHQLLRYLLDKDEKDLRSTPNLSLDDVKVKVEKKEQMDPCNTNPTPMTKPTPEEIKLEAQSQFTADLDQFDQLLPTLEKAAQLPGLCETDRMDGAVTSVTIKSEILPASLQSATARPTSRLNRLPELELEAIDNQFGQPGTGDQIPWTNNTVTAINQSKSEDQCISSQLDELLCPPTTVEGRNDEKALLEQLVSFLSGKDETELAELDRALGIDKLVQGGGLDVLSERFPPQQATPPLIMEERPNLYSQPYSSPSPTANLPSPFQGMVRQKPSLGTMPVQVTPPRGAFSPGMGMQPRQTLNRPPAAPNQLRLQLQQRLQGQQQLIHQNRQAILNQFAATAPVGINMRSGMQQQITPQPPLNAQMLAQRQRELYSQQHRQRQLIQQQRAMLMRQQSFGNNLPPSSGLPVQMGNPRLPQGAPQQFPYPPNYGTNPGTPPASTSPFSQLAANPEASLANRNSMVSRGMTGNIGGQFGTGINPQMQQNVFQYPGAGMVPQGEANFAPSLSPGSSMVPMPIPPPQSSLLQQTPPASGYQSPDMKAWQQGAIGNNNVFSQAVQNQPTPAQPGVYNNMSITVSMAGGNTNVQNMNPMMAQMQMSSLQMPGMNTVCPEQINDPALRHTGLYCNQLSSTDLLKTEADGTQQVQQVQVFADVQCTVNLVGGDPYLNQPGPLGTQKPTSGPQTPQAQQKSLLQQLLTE

The term IC50 denotes the midpoint of a concentration-inhibition curve. With `C[C@@H]1CN(C2=C(Cl)C(=O)N(c3ccc(Cl)c(Cl)c3)C2=O)CCN1`, the IC50 on Bcl-2-related protein A1 [1] is 1.03 µM (active); at Bcl-2-related protein A1 [2], 1.16 µM (active).
As a reminder, the EC50 is the concentration that produces a half-maximal response. With `O=C1NN(c2ccccc2)C(=O)/C1=C/c1ccc(Sc2cccc3ccccc23)o1`, the values for the EC50 in [3], in [4] and in test [5] were > 79.4 µM (inactive), > 79.4 µM (not active) and 92.2 µM (not active), respectively. For the same compound, the IC50 was 5.55 µM (active) at NS3, 8.56 µM (active) at Cysteine protease ATG4B, 8.08 µM (active) on Phospholipase A2 and 7.12 µM (active) in test [6].
Turning to `O=C(O)c1ccc(SCc2cnc(Cl)s2)cc1`, in [7], the 50% effective concentration (EC50) is reported as > 120 µM (not active).
For `CCN(CCNC(=O)C1CCN(Cc2nc(-c3cccc(Cl)c3)oc2C)CC1)c1ccccc1`, the concentration for a half-maximal effect (EC50) was > 20 µM (not active) in [8], > 20 µM (not active) in test [9], 13.3 µM (active) in [10] and 10.7 µM (active) in [11]. Further, in test [12], the AC50 was 0.024 µM (active).
In the case of `O=c1oc(-c2cccs2)nc2c1cnn2-c1ccccc1`, the IC50 was > 100 µM (active) in test [13] and 4.92 µM (active) in the test “cells [14]”.
Take `CCCc1cc(-n2ccnc2)n2c(nc3ccccc32)c1C#N`: the IC50 at Estrogen receptor is 29.8 µM (active).
Consider `Oc1c(CN2CCN(c3ccccn3)CC2)cc(Cl)c2cccnc12`, for which the EC50 in test [15] is 2.52 µM (active); in test [16], 10.7 µM (active); in the test on HEK293 [17], 4.58 µM (active); in test [18], 3.06 µM (active); in the test “cells [20]” it was > 12 µM (inconclusive); in test [21], < 0.1 µM (active). The EC50 in test [23] is 8.07 µM (active); in [26], 0.942 µM (active); in [28] it was 7.32 µM (active); in the test with Streptococcus, 5.45 µM (active); in test [30], > 12 µM (not active). Further, the IC50 in the test with HEK293 [19] is 6.23 µM (active); with HEK293 [22], > 20 µM (inactive); in test [24] it was > 50 µM (not active); in the test on HEK293 [25] it was 4.88 µM (inactive); in the test with HEK293 [27] it was > 20 µM (inactive); in test [29], > 50 µM (not active). Also, the AC50 with INS1 was 1.99 µM (active).
For the compound `Cc1ccc(-c2nc(-c3ccccc3)c(-c3ccccc3)[nH]2)cc1`, the IC50 against NADPH oxidase 1 is > 17 µM (not active).
Consider `O=[N+]([O-])c1cccc2c(Br)n[nH]c12`, for which the AC50 at Cytochrome P450 2C19 [31] was 0.001 µM (inconclusive); on Cytochrome P450 2C19 [32] it was 0.251 µM (inconclusive); at Cytochrome P450 2D6, 0.251 µM (inconclusive).

Values taken from ChEMBL document CHEMBL1201862, “PubChem BioAssay data set” (2004).
